In PMC9017309, “Triazolopyrimidines Target Aerobic Respiration in Mycobacterium tuberculosis” (Antimicrobial Agents and Chemotherapy, 2022):
≈ marks a conversion by molar mass, not a printed value.

Assays:
[1] = test system: M. tuberculosis H37Rv ATCC 27294; assay: microbe, parasite or virus in culture; assay type: cell-based; settings: Mycobacterium tuberculosis, 120 h; 5 days; read-out: MIC, H37Rv ATCC 27294 Parental
human HepG2 cells = settings: read-out: IC50 HepG2, Glucose; concentration reducing cell number by 50%, 3 days exposure, glucose as carbon source; cited from earlier work
in vitro = settings: human
[2] = test system: M. tuberculosis H37Rv-LP (ATCC 25618); assay: MIC in liquid medium, parental strain; assay type: cell-based; settings: Mycobacterium tuberculosis, 120 h, n in brackets
[3] = test system: M. tuberculosis in human THP-1 macrophages; assay: Activity against intracellular M. tuberculosis in THP-1 macrophages; assay type: cell-based; settings: Mycobacterium tuberculosis, THP-1, 72 h, unit inferred, μM
M. tuberculosis = assay type: cell-based, Mycobacterium tuberculosis; settings: normalized to DMSO control
[4] = test system: M. tuberculosis H37Rv-LP (ATCC 25618); assay: microbe, parasite or virus in culture; assay type: cell-based; settings: Mycobacterium tuberculosis, 504 h, 24-well agar plates, 3 weeks, read-out: MIC on solid medium, H37Rv-LP

Row | SMILES | MIC [1] [µM] | IC50 (human HepG2 cells) [µM] | IC50 (in vitro) [µM] | MIC [2] [µM] | IC50 [3] [µM] | Effect on intracellular ATP levels (M. tuberculosis) | MIC [4] [µM]
1 | FC(F)(F)c1ccc(CCNc2cc(-c3ccccc3)nc3ncnn23)cc1 [TPN-0006243] | 2.2 ± 0.9 (≈ 0.843 µg/mL) | > 100 | > 100 | 3.7 ± 2.9 (≈ 1.42 µg/mL) |  |  | 
2 | Cc1ccc(CCNc2cc(-c3ccccc3)nc3ncnn23)cc1 [TPN-0006245] |  | 58 | 39 | 2 ± 1.1 (≈ 0.659 µg/mL) |  |  | 
3 | Clc1ccc(CCNc2cc(-c3ccccn3)nc3ncnn23)cc1 [TPN-0006273] |  | 100 | 76 |  | 0.19 ± 0.13 |  | 
4 | CCc1ccc(CCNc2cc(-c3ccccn3)nc3ncnn23)cc1 [TPN-0006288] |  | 44 | 23 |  | 0.076 ± 0.032 |  | 
5 | CCc1ccc(CCNc2cc(-c3ccccc3)nc3ncnn23)cc1 [TPN-0006290] |  | 49 | 33 |  | 0.18 ± 0.09 |  | 
6 | CCc1nc2ccc(Cl)cn2c1C(=O)NCc1ccc(N2CCC(c3ccc(OC(F)(F)F)cc3)CC2)cc1 [Molecule Q203, Q203] |  |  |  |  |  | depletion of ATP levels at concentrations lower than the MIC | 
7 | COc1ccc(CCNc2cc(-c3ccccn3)nc3ncnn23)cc1 [TPN-0006239] | 9.5 ± 3.5 (≈ 3.29 µg/mL) | > 100 | 73 | 1.1 ± 0.5 (≈ 0.381 µg/mL) |  |  | 1.6 (≈ 0.554 µg/mL)
8 | NC[C@H]1O[C@H](O[C@H]2[C@H](O)[C@@H](O[C@H]3O[C@H](CO)[C@@H](O)[C@H](N)[C@H]3O)[C@H](N)C[C@@H]2N)[C@H](O)[C@@H](O)[C@@H]1O [kanamycin] |  |  |  |  |  | Depletion of ATP was not seen | 
9 | FC(F)(F)c1ccc(CCNc2cc(-c3ccccn3)nc3ncnn23)cc1 [TPN-0006267] |  | > 100 | > 100 | 1.4 ± 1.4 (≈ 0.538 µg/mL) | 0.21 ± 0.11 |  | 1.6 (≈ 0.615 µg/mL)
10 | COc1ccc(CCNc2cc(-c3ccccc3)nc3ncnn23)cc1 [TPN-0006218] |  | > 100 | 65 | 2.6 ± 1.3 (≈ 0.898 µg/mL) | 0.23 ± 0.08 |  | 
